Experimental data reported in ChEMBL document CHEMBL1122916, “Synthesis of xanthines as adenosine antagonists, a practical quantitative structure-activity relationship application” (J Med Chem, 1985).
Converted amounts (≈) assume the structure as drawn.

What was measured:
[1] = organism: Bos taurus; assay: log(1000/IC50 determined from bovine brain membrane) expressed as potency; assay type: functional
[2] = Solubility in 0.1 N HCl; assay type: physicochemical
[3] = Partition coefficient (logP); assay type: physicochemical; details: octanol/water
[4] = Equilibrium constant (pKa) was determined.; assay type: physicochemical
[5] = Solubility in 0.1 M phosphate buffer at pH 7.4; assay type: physicochemical
[6] = molecular target: T1, Adenosine receptor A1 (Bos taurus, UniProt P28190)
T1 sequence (P28190 whole entry): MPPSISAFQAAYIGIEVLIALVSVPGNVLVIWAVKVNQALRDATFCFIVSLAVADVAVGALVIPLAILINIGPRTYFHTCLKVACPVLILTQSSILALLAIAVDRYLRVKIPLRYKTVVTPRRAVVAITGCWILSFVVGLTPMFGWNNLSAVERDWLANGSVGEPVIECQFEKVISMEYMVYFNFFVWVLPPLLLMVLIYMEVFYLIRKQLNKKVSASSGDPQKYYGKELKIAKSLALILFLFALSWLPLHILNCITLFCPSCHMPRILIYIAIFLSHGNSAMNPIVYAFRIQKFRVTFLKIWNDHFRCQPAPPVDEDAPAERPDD
Description: Binding affinity against bovine brain adenosine A1 receptor by using N6-[3H]- cyclohexyladenosine

[7] = molecular target: T2, Adenosine receptor A1 (Rattus norvegicus, UniProt P25099); assay: Binding affinity against rat brain adenosine A1 receptor by using N6-[3H]- cyclohexyladenosine as radioligand
T2 sequence (P25099 whole entry): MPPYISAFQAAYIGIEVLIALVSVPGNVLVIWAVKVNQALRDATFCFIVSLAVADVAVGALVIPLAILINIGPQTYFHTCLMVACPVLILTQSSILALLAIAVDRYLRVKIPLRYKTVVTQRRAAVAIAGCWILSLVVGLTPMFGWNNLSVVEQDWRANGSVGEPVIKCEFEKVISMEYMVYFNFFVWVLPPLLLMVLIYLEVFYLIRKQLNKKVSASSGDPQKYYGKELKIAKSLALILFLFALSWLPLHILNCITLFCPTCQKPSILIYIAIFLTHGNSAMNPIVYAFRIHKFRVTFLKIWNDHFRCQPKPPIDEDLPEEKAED

[8] = phosphate buffer, read-out: Solubility

Compound | Potency [1] | IC50 [6] | other results
COc1ccc(-c2nc3c(=O)n(C)c(=O)n(C)c3[nH]2)cc1 | 2.82 |  | 
Cn1c(=O)c2nc(-c3cccc(O)c3)[nH]c2n(C)c1=O | 2.22 |  | 
CCCn1c(=O)c2[nH]c(-c3ccc(Cl)cc3N)nc2n(CCC)c1=O |  |  | solubility [2]: 0.4 µg/mL (≈ 1.11 µM); logP [3]: 4.02; pKa [4]: 8.4; solubility [5, 8]: < 0.1 µg/mL
Cn1c(=O)c2nc(-c3ccccc3[N+](=O)[O-])[nH]c2n(C)c1=O | 1.1 |  | 
Cn1c(=O)c2nc(-c3ccccc3O)[nH]c2n(C)c1=O | 2 |  | 
Cn1c(=O)c2nc(-c3ccccc3N)[nH]c2n(C)c1=O | 2.26 | 5.5 nM | 
Cn1c(=O)c2[nH]c(-c3ccccc3F)nc2n(C)c1=O |  | 12.5 nM | 
Cn1c(=O)c2[nH]c(-c3ccc4ccccc4c3)nc2n(C)c1=O |  | 5.5 nM | 
CCn1c(=O)c2[nH]c(-c3ccccc3)nc2n(CC)c1=O |  |  | solubility [2]: 1 µg/mL (≈ 3.52 µM); logP [3]: 2.93; pKa [4]: 9.1; solubility ([5]; buffer): 6 µg/mL (≈ 21.1 µM)
C=CCn1c(=O)c2[nH]c(-c3ccccc3)nc2n(C)c1=O | 2.4 |  | 
Cn1c(=O)c2nc(-c3ccc(-c4ccccc4)cc3)[nH]c2n(C)c1=O | 2.46 |  | 
Cn1c(=O)c2nc(-c3ccc(Cl)cc3)[nH]c2n(C)c1=O | 3.1 |  | 
COc1ccccc1-c1nc2c(=O)n(C)c(=O)n(C)c2[nH]1 | 0.46 |  | 
Cn1c(=O)c2nc(-c3ccc(N)cc3)[nH]c2n(C)c1=O | 2.76 |  | 
Cn1c(=O)c2nc(-c3ccc4ccccc4c3)[nH]c2n(C)c1=O | 2.26 |  | 
CCCn1c(=O)c2nc(-c3ccc(S(=O)(=O)NCCCC(=O)OCC)cc3)[nH]c2n(CCC)c1=O |  | 0.24 nM | IC50 [7]: 18.5 nM
Cn1c(=O)c2nc(-c3ccc([N+](=O)[O-])cc3)[nH]c2n(C)c1=O | 2.1 |  | 
CCn1c(=O)c2[nH]c(-c3ccc(S(=O)(=O)O)cc3)nc2n(CC)c1=O |  | 755 nM | solubility [2]: > 8000 µg/mL; logP [3]: -0.97; pKa [4]: < 2; IC50 [7]: 5540 nM; solubility [5, 8]: > 57000 µg/mL
CCCn1c(=O)c2nc(-c3ccc(S(=O)(=O)NCCN(C)C)cc3)[nH]c2n(CCC)c1=O |  | 0.05 nM | solubility [2]: 19900 µg/mL (≈ 43000 µM); logP [3]: 3.32; pKa [4]: 6; IC50 [7]: 6.5 nM; solubility ([5]; buffer): 50 µg/mL (≈ 108 µM)
Cn1c(=O)c2nc(-c3ccc(Cl)c(Cl)c3)[nH]c2n(C)c1=O | 2.3 |  | 
Cc1ccc(-c2nc3c(=O)n(C)c(=O)n(C)c3[nH]2)c(N)c1 | 2 |  | 

Compound | Potency [1] | IC50 [6] | other results
COc1cc(OC)cc(-c2nc3c(=O)n(C)c(=O)n(C)c3[nH]2)c1 | 0.3 |  | 
CCc1ccc(-c2nc3c(=O)n(C)c(=O)n(C)c3[nH]2)cc1 | 3.1 |  | 
C=CCn1c(=O)c2[nH]c(-c3ccc(C)cc3N)nc2n(C)c1=O | 2.15 |  | 
CCn1c(=O)c2nc(-c3ccc(S(=O)(=O)N4CCN(C)CC4)cc3)[nH]c2n(CC)c1=O |  | 6.5 nM | IC50 [7]: 190 nM
Cn1c(=O)[nH]c2[nH]c(-c3ccccc3)nc2c1=O | 2.6 |  | 
CCCCOc1ccc(-c2nc3c(=O)n(C)c(=O)n(C)c3[nH]2)cc1 | 2.4 |  | 
CCn1c(=O)c2nc(-c3ccc(S(=O)(=O)NCCN(C)C)cc3)[nH]c2n(CC)c1=O |  | 3.3 nM | solubility [2]: 11500 µg/mL (≈ 26500 µM); logP [3]: 2.57; pKa [4]: 6.8; IC50 [7]: 116 nM; solubility [5, 8]: 110 µg/mL (≈ 253 µM)
C=CCn1c(=O)c2nc(-c3ccc(Cl)cc3N)[nH]c2n(CC=C)c1=O | 3.1 |  | 
CCCn1c(=O)c2nc(-c3ccc(S(=O)(=O)NCCCCN(C)C)cc3)[nH]c2n(CCC)c1=O |  | 0.07 nM | IC50 [7]: 7.5 nM
CN(C)c1cccc(-c2nc3c(=O)n(C)c(=O)n(C)c3[nH]2)c1 | 1.1 |  | 
CCn1c(=O)c2[nH]c(-c3ccc(S(=O)(=O)NCCCN(C)C)cc3)nc2n(CC)c1=O |  | 1.6 nM | IC50 [7]: 70 nM
Cc1ccccc1-c1nc2c(=O)n(C)c(=O)n(C)c2[nH]1 | 2.19 |  | 
CCn1c(=O)c2nc(-c3ccc(Br)cc3)[nH]c2n(CC)c1=O | 3 |  | 
Cc1cc(O)cc(C)c1-c1nc2c(=O)n(C)c(=O)n(C)c2[nH]1 | 1.52 |  | 
CCCn1c(=O)c2nc(-c3ccccc3N)[nH]c2n(CCC)c1=O |  | 0.75 nM | solubility [2]: 4 µg/mL (≈ 12.2 µM); logP [3]: 3.54; pKa [4]: 9.1; IC50 [7]: 41 nM; solubility [5, 8]: < 1 µg/mL
Cn1c(=O)c2nc(-c3ccc(N)cc3N)[nH]c2n(C)c1=O | 2.1 |  | 
Cn1c(=O)c2nc(-c3cccc(Br)c3)[nH]c2n(C)c1=O | 2 |  | 
COc1ccc(-c2nc3c(=O)n(C)c(=O)n(C)c3[nH]2)c(OC)c1 | 0.7 |  | 
Cn1c(=O)c2[nH]c(-c3ccc(N)cc3)nc2n(C)c1=O |  | 1.75 nM | 
Cn1c(=O)c2nc(-c3cccc([N+](=O)[O-])c3)[nH]c2n(C)c1=O | 1.3 |  | 
Cn1c(=O)c2nc(-c3ccccc3F)[nH]c2n(C)c1=O | 1.9 |  | 

Compound | Potency [1] | IC50 [6] | other results
CCCn1c(=O)c2nc(-c3ccccc3)[nH]c2n(CCC)c1=O | 3.15 |  | 
Cn1c(=O)c2[nH]c(-c3ccc(Br)cc3)nc2n(C)c1=O |  | 0.75 nM | 
Cn1c(=O)c2[nH]c(-c3ccc(S(=O)(=O)O)cc3)nc2n(C)c1=O |  | 21.9 nM | 
CCn1c(=O)c2nc(-c3ccc(S(=O)(=O)NCC(C)O)cc3)[nH]c2n(CC)c1=O (stereo not drawn) |  | 4.2 nM | IC50 [7]: 138 nM
CCn1c(=O)c2nc(-c3ccc(Cl)cc3N)[nH]c2n(CC)c1=O | 3.1 |  | 
CC(C)c1ccc(-c2nc3c(=O)n(C)c(=O)n(C)c3[nH]2)cc1 | 2.6 |  | 
C=CCn1c(=O)c2[nH]c(-c3ccc(Cl)cc3N)nc2n(C)c1=O | 2.7 |  | 
Cn1c(=O)c2nc(-c3ccc([N+](=O)[O-])cc3N)[nH]c2n(C)c1=O | 2.6 |  | 
CCn1c(=O)c2nc(-c3cccc(S(=O)(=O)NCCN(C)C)c3)[nH]c2n(CC)c1=O |  | 29.4 nM | IC50 [7]: 553 nM
CCCn1c(=O)c2nc(-c3ccc(N)cc3N)[nH]c2n(CCC)c1=O | 3.82 | 0.15 nM | 
CSc1ccc(-c2nc3c(=O)n(C)c(=O)n(C)c3[nH]2)cc1 | 2.7 |  | 
CCn1c(=O)c2[nH]c(-c3cccc(S(=O)(=O)O)c3)nc2n(CC)c1=O |  | 8420 nM | IC50 [7]: 30700 nM
CCCn1c(=O)c2nc(-c3ccc(Cl)cc3N)[nH]c2n(CCC)c1=O | 4.3 |  | 
CCCn1c(=O)c2[nH]c(-c3ccc(S(=O)(=O)NCCCN(C)C)cc3)nc2n(CCC)c1=O |  | 0.08 nM | IC50 [7]: 8.2 nM
CCCn1c(=O)c2[nH]c(-c3ccccc3)nc2n(CCC)c1=O |  | 0.7 nM | 
CCn1c(=O)c2[nH]c(-c3ccc(N(C)C)cc3)nc2n(CC)c1=O |  | 3.3 nM | IC50 [7]: 118 nM
Cn1c(=O)c2nc(-c3cccc(F)c3)[nH]c2n(C)c1=O | 2.4 |  | 
Cn1c(=O)c2nc(-c3ccccc3C(=O)O)[nH]c2n(C)c1=O | -0.4 |  | 
Cn1c(=O)c2nc(-c3cccc4ccccc34)[nH]c2n(C)c1=O | 1.1 |  | 
Cc1ccccc1-c1nc2c([nH]1)c(=O)n(C)c(=O)n2C |  | 6.5 nM | 
Cn1c(=O)c2nc(-c3ccc(F)cc3)[nH]c2n(C)c1=O | 2.46 |  | 

Compound | Potency [1] | IC50 [6] | other results
CCOc1ccc(-c2nc3c(=O)n(C)c(=O)n(C)c3[nH]2)cc1 | 2.7 |  | 
Cc1cccc(-c2nc3c(=O)n(C)c(=O)n(C)c3[nH]2)c1 | 1.89 |  | 
C=CCn1c(=O)c2nc(-c3ccc(S(=O)(=O)O)cc3)[nH]c2n(CC=C)c1=O |  | 1140 nM | IC50 [7]: 7440 nM
CCn1c(=O)c2[nH]c(-c3ccc(S(N)(=O)=O)cc3)nc2n(CC)c1=O |  | 0.91 nM | IC50 [7]: 47 nM
Cn1c(=O)c2nc(-c3ccc(I)cc3)[nH]c2n(C)c1=O | 2.89 |  | 
Cn1c(=O)c2nc(-c3ccc(Br)cc3)[nH]c2n(C)c1=O | 3.12 |  | 
CCn1c(=O)c2[nH]c(-c3ccc(S(=O)(=O)N4CCSCC4)cc3)nc2n(CC)c1=O |  | 36.6 nM | IC50 [7]: 646 nM
CCn1c(=O)c2[nH]c(-c3ccc(S(=O)(=O)N4CCOCC4)cc3)nc2n(CC)c1=O |  | 13 nM | IC50 [7]: 310 nM
CCCn1c(=O)c2[nH]c(-c3ccc(S(=O)(=O)O)cc3)nc2n(CCC)c1=O |  | 3.4 nM | solubility [2]: 1300 µg/mL (≈ 3310 µM); logP [3]: -0.03; pKa [4]: < 2; IC50 [7]: 120 nM; solubility [5, 8]: > 24000 µg/mL
C=CCn1c(=O)c2nc(-c3ccc(S(=O)(=O)NCCCN(C)C)cc3)[nH]c2n(CC=C)c1=O |  | 10.3 nM | 
Cn1c(=O)c2nc(-c3cccc(N)c3)[nH]c2n(C)c1=O | 2 |  | 
CN(C)c1ccc(-c2nc3c(=O)n(C)c(=O)n(C)c3[nH]2)cc1 | 2.74 |  | 
COc1cccc(-c2nc3c(=O)n(C)c(=O)n(C)c3[nH]2)c1 | 1.7 |  | 
Cn1c(=O)c2nc(-c3cccc(C(=O)O)c3)[nH]c2n(C)c1=O | 0 |  | 
Cn1c(=O)c2nc(-c3ccc(C(=O)O)cc3)[nH]c2n(C)c1=O | 1.3 |  | 
Cn1c(=O)c2nc(-c3ccc(O)cc3)[nH]c2n(C)c1=O | 2.7 |  | 
Cn1c(=O)c2nc(-c3ccc(Cl)cc3N)[nH]c2n(C)c1=O | 3.46 |  | 
Cn1c(=O)c2[nH]c(-c3ccc(Cl)cc3N)nc2n(C)c1=O |  | 0.35 nM | 
Cc1ccc(-c2nc3c(=O)n(C)c(=O)n(C)c3[nH]2)cc1 | 3.1 |  | 
